Assays:
[1] = test system: wild-type AB strain zebrafish; experiment: Zebrafish model, relieving stinging efficacy (SDS-induced, movement distance and speed); format: in vivo; conditions: zebrafish 3 dpf, 100 µM SDS model; effective concentrations 22.2, 66.6, and 200 µg/mL
Description: (§1) Experimental animal: Healthy wild-type AB strain zebrafish at 3 dpf (days post fertilization)
Evaluation of the relieving stinging efficacy: Healthy AB strain zebrafish were taken and randomly divided into four groups: blank control, modeling group, positive control, and sample group. The zebrafish in the blank control group were treated with embryo culture water; the zebrafish in the modeling group were treated with a modeling drug (100 µM SDS , sodium dodecyl sulfate); the zebrafish in the positive control group were treated with both the modeling agent and a positive control drug (200 µM asiaticoside solution); and the zebrafish in the sample group were treated with both the modeling drug and different concentrations of the test sample (high, medium, and low concentrations). After continuous treatment for a certain period, the zebrafish's behavioral trajectories were recorded using a behavior analyzer, and the changes in total movement distance and speed were statistically analyzed, the results are shown in FIGS. 2-4. […] In the behavioral trajectory diagram in FIG. 2, the black lines represent the zebrafish's behavioral trajectories in the hole; the more numerous and chaotic the lines, the more vigorous the movement of the zebrafish.

[2] = test system: wild-type AB strain zebrafish; experiment: Zebrafish tail amputation model, wound repair efficacy (caudal fin area); format: in vivo; conditions: I-8 at 1, 3, and 9 µg/mL, 48 hrs; compared with the modeling group, statistical significance
Description: as §1
Evaluation of wound repair efficacy: Healthy AB strain zebrafish were taken as experimental animal, and randomly divided into blank control group, modeling group, positive control group, and sample group. The zebrafish in the blank control group were treated with culture water; the zebrafish in the modeling group were treated with culture water after cutting the caudal fin; the zebrafish in the positive control group and sample group were treated with 600 µg/mL hyaluronic acid and I-8 with different concentrations (1, 3, 9 µg/mL) respectively after cutting the caudal fin. The larva fish in above groups were placed in a constant temperature incubator at 28.5 °C and kept in continuous darkness for 48 hrs, with the culture medium changed once every 24 hrs. Image-Pro Plus software was used to calculate the area of the caudal fin of each group of zebrafish. The data were statistically analyzed using GraphPad software.

LAMA5 = experiment: LN-5 gene expression in HaCaT human immortalized keratinocytes; format: cell-based; conditions: 24 hrs, dose-dependent
Text: Skin fragility is partly attributed to changes in hemidesmosomes and the expression downregulation of various collagen proteins (Collagen I, III, IV, VII) or laminins (such as LN-5) at the dermal-epidermal junction. LN-5 has been proven to be a component of anchoring fibers in the basement membrane of the skin, cornea, conjunctiva, and other tissues. LN-5 participates in cell-cell interactions through the mediation of integrins and proteoglycans, thereby playing a crucial role in cell adhesion, growth, migration, and differentiation. The appearance of wrinkles is closely related to the normal synthesis and expression of collagen and laminins. Therefore, the increase of the above collagen content and LN-5 can achieve a certain role in resisting wrinkles, and plays an important role in the aging process of the skin. Therefore, the anti-wrinkle effect of the compound to be tested was evaluated by detecting the level of Collage I protein of […] by ELISA, and detecting the transcription levels of epidermal cells (keratinocytes) III, IV, VII and LN -5 by Real-Time PCR. The following Test Examples 8-1 and 8-2 evaluated the anti-wrinkle efficacy of compounds using HaCaT human immortalized keratinocytes and HSF human skin fibroblasts. […]

HaCaT cells = experiment: ROS content / ROS scavenging rate in HaCaT after UVB radiation (DCFH-DA); format: cell-based, human; conditions: for ROS scavenging rate: HaCaT cells after UVB radiation
Text: Oxidative reactions such as respiration and metabolism in organisms generate reactive free radicals. Under normal bodily conditions, free radicals have a stable scavenging system, so that the free radical content of the body is kept at a relatively low concentration. Oxidative stress (OS) refers to an imbalance between oxidation and antioxidation in the body due to endogenous and/or exogenous stimuli, resulting in excessive free radical production. Excessive free radicals produce a series of negative effects in the body, including oxidative damage to biomolecules and further causing cell death and tissue damage, etc. In organisms, almost all ROS, except for trace amounts utilized by the body, should be promptly scavenged. Medium Wave Erythema Effect Ultraviolet (UVB) (280-319 nm) radiation damage is the most important factor leading to photoaging of the skin, primarily damaging keratinocytes (HaCaT), specifically manifested as the accumulation of photoproducts, increased ROS, and exacerbated oxidative damage, etc. Over long periods of evolution, organisms have developed a complete antioxidant system, maintaining a dynamic balance between the production and elimination of free radicals. This is an adaptive mechanism of organisms, and the main members include antioxidant enzymes, antioxidants, and proteins that separate transition metals, all of which can specifically limit oxidative damage to the body. Therefore, the antioxidant efficacy of a test compound can be evaluated by detecting the ROS scavenging rate in keratinocytes after UVB radiation.
• 1) Cell inoculation: HaCaT cells were inoculated into a 96-well plate at 2 × 10^4/well, cultured in an incubator (37 °C, 5% CO2) for 12 hrs, and a control group (120 mJ/cm^2 + vehicle control), a low concentration group (120 mJ/cm^2 + low concentration compound), a medium concentration group (120 mJ/cm^2 + medium concentration compound), and a high concentration group (120 mJ/cm^2 + high concentration compound) were respectively provided. • 2) UVB modeling: The HaCaT cells were washed 3 times with D'Hanks before UVB radiation, 50 µL of D'Hanks was added into the wells, to make the cells to be immersed, and the control group was coated with tinfoil and placed in the dark. For the test groups, UVB modeling was performed on the group requiring radiation, respectively. • 3) Administration: DMEM medium containing different concentrations of compound were added to each test group for continued culture for 24 hrs. • 4) Transferring the ROS fluorescent probe: DCFH-DA was Diluted to a final concentration of 10 µmol/L using PBS at a dilution ratio of 1:1000. The culture medium in all wells except the bare cell wells was discarded. After washing three times with PBS, 200 µL of DCFH-DA working solution was added to each well, then incubated in a CO2 incubator for 30 min, and after incubation, the cells in each well were washed with PBS for 3 times. • 5) Fluorescence analysis. The 96-well plate to be tested was placed on the detection stage of the fluorescence microplate reader, with the […] set to 525 nm, the excitation light wavelength set to 488 nm, and the reading was analyzed.
ROS scavenging rate (%) = (S(Modelcontrolgroup)−S(Samplegroup))/(S(Modelcontrolgroup)) × 100% [formula] wherein S is fluorescence intensity.

What does the source list for `O=S1(=O)Oc2cc(O)ccc2-c2ccc(O)cc21` [Compound I-8]?
relieving stinging efficacy [1]: certain relieving stinging efficacy; caudal fin area [2]: increased; LAMA5 gene expression (LAMA5): upregulate; ROS content in HaCaT after UVB radiation (HaCaT cells; HaCaT, UVB 120 mJ/cm^2, 24 hrs, low, medium, high concentration): scavenging ROS in a dose-dependent manner; ROS scavenging rate (HaCaT cells; content 0.00015625%): 12%; ROS scavenging rate (HaCaT cells; content 0.000625%): 22%; ROS scavenging rate (HaCaT cells; content 0.0025%): 26%
